Source: PMC4514675, “Novel Apo E-Derived ABCA1 Agonist Peptide (CS-6253) Promotes Reverse Cholesterol Transport and Induces Formation of preβ-1 HDL In Vitro” (PLoS ONE, 2015)

Legend:
THP-1 foam cells = test: Cholesterol efflux from THP-1 macrophage-derived foam cells; assay type: cell-based, human
Description: Human THP-1 macrophages (American Type Tissue Culture Collection, Camden, NJ) were grown as previously reported. Cells were plated at 2x10^5/ml 24 well-plates in RPMI1640 medium containing 10% fetal bovine serum (FBS), 50 μM β–mercaptoethanol, 50 μg/ml gentamicin, and maintained at 37°C in a humidified atmosphere of 5% CO2. THP-1 cells were differentiated into macrophages by the addition of 200 nM phorbol myristyl acetate (PMA) for 72h. Macrophages were incubated for 72h to become fully differentiated macrophages prior to experiment. […]
Human macrophages THP-1 cells were labelled with ^3H-cholesterol (5 μCi/ml) incorporated into AcLDL (100 μg/ml) in the presence of 1% FBS, 50 μM β-mercaptoethanol and 200 nM PMA, and incubated for 72h. […] Medium and cell associated ^3H-cholesterol were then measured by liquid scintillation counting. Cholesterol efflux was calculated according to the following equation as the percentage of ^3H-cpm medium / (^3H-cpm medium + ^3H-cpm cells) × 100%. […] Bands corresponding to ^3[H]-FC and ^3[H]-CE were located by exposure to iodine vapor, and were scraped off the plate into liquid scintillating vials and assayed for radioactivity.
Fig 2 Effect of CS-6253 treatment on cholesterol efflux. […] Cholesterol efflux from either ABCA1 cells or control cells to apo A-I (closed circles), and CS-6253 (closed triangles) was determined at the indicated time points. […]

[1] = tested on: BHK cells expressing ABCA1; test: Nascent HDL particle formation, 2D-PAGGE; assay type: cell-based, hamster; details: 0.96 μM
Description: Apo A-I and CS-6253-containing particles were separated according to charge (agarose, horizontal axis) and size (polyacrylamide gradient, 3% to 20% gel, vertical axis) as previously described. Apo A-I-containing particles were detected by incubating the membranes with immunopurified polyclonal anti-apo A-I antibody (Biodesign). The nHDL-CS-6253 containing particles were detected with immunopurified polyclonal anti-CS-6253 antibody (Biosynthesis Inc., Lewisville, TX). The anti-CS-6253 is a purified rabbit IgG polyclonal antibody specifically produced by Biosynthesis Inc. It is. Cross reactivity of this antibody was verified by Nondenaturing gradient gel electrophoresis (ND-PAGGE) 5% to 35% [24]. The anti-CS-6253 antibody recognizes only CS-6253 peptide in plasma; neither apo A-I nor apo E were detected by this antibody after separation by gradient gel electrophoresis respectively (Fig 1A, 1B and 1C). High molecular weight protein mixture (GE Healthcare, UK) was run as a standard on each gel.
Next, we investigated the nature of CS-6253-containing particles released in the medium from stimulated ABCA1 cells. Cells were first incubated in 100 mm diameter dishes with either (0.96 μM) apo A-I or CS-6253 in 8 ml of DMEM for 45 min and 6 h at 37°C. These two time points were selected based on our previous work on HDL biogenesis. Lipid free apo A-I or CS-6253 incubated in cell free system media under same conditions were used as control for 2D-PAGGE analysis. Apo A-I or CS-6253-containing particles were separated and analyzed by 2D-PAGGE. […] Both the charge and size of these nascent particles were stable over a 6h incubation period.
Fig 5 Time course ability of CS-6253 to generate nHDL-mimetic like particles. (A and B): nHDL-CS-6253 and nHDL-apo A-I released to the medium at specific time points (45 min and 6 h) from BHK cells expressing ABCA1 were analyzed by 2D-PAGGE. […] Molecular markers are indicated.

In the case of apolipoprotein A-I [apo A-I], the “3H-FC removed from FC-enriched THP-1 cells” value (THP-1 foam cells; 0.96 μM acceptor, 24 h, vs control without acceptor, triplicate wells, mean ± SD) is reported as 27.42±1.04%, the “proportion of FC mobilized away from the CE cycle” value (THP-1 foam cells; THP-1 foam cells, P<0.05) is reported as 29% and the “electrophoretic mobility of released particles” value ([1]; 45 min or 6 h, BHK-ABCA1) is reported as “α-electrophoretic mobility”. For the same substance, the “electrophoretic mobility, incubated without cells” value ([1]; cell free media) was “pre-β electrophoretic mobility” and the “molecular diameter, incubated without cells” value ([1]; lipid free, cell free media, pre-β mobility) was 7.1 nm.
